Among the data in patent publication US10899738B2 (THE REGENTS OF THE UNIVERSITY OF MICHIGAN, priority 2016, dated 2021) are IC50 values, retold here.

Tested on in the first assay: not listed separately
Briefly: Cell growth inhibition, CellTiter-Glo Luminescent Cell Viability Assay. Type of assay: cell-based. The note with it: MOLM-13, 96 h, MOLM13 cells, 4 days, CellTiter-Glo; read-out: Cell Growth Inhibition IC50 (μM) MOLM13. The procedure:
Cell growth inhibitory activity of representative menin inhibitors was determined using CellTiter-Glo® Luminescent Cell Viability Assay. Cells were seeded in 384-well white opaque cell culture plates at a density of 2,000 cells/well with serially diluted compounds and incubated at 37° C. in an atmosphere of 95% air and 5% CO2 for 4 days. Cell viability was determined using the CellTiter-Glo® Luminescent Cell Viability Assay Kit (Promega, Madison, Wis.) according to the manufacture's instruction. Briefly, a volume of CellTiter-Glo® Reagent equal to the volume of cell culture medium was added to each well, and then the plates were incubated at room temperature for 10-20 minutes. The luminescent signal was measured using a Tecan Infinite M1000 multimode microplate reader (Tecan, Morrisville, N.C.). The half maximal inhibitory concentration (IC50) was calculated using the GraphPad Prism 5 software (GraphPad Software, La Jolla, Calif.).
On the technique in general: Cellular ATP, detected with luciferase, serves as a proxy for viable cell number.
The IC50 is the concentration at which inhibition is half-maximal. On to `COC(=O)N[C@H]1CCC[C@@H]1C(C#N)(c1ccccc1)C1CCN(CC2CN(c3ccc(C#N)cc3)C2)CC1` (mixture of isomers) [compound 400, methyl rac-((1S,2R)-2-(cyano(1-((1-(4-cyanophenyl)azetidin-3-yl)methyl)piperidin-4-yl)(phenyl)methyl)cyclopentyl) carbamate], for which the IC50 worked out at 6.11 µM.

Staying with this assay, now noted: MOLM-13, 96 h, read-out: Cell Growth Inhibition IC50 (μM) MOLM13, MOLM13 cells, 4 days, CellTiter-Glo.
Regarding `COC(=O)N[C@H]1CCC[C@@H]1C(C#N)(c1ccccc1)C1CCN(CC2CN(c3ccc(S(=O)(=O)C(F)(F)F)cc3)C2)CC1` (mixture of isomers) [compound 393, methyl rac-((1S,2R)-2-(cyano(phenyl)(1-((1-(4-((trifluoromethyl)sulfonyl)phenyl)azetidin-3-yl)methyl)piperidin-4-yl)methyl)cyclopentyl) carbamate], the IC50 was 0.88 µM.

The same assay, now with this note: MV4-11, 96 h, MV4; 11 cells, 4 days, CellTiter-Glo; read-out: Cell Growth Inhibition IC50 (μM) MV4; 11.
As for `COC(=O)N[C@H]1CCC[C@@H]1C(C#N)(c1ccccc1)C1CCN(CC2CN(c3ccc(C#N)cc3)C2)CC1` (mixture of isomers) [compound 400, methyl rac-((1S,2R)-2-(cyano(1-((1-(4-cyanophenyl)azetidin-3-yl)methyl)piperidin-4-yl)(phenyl)methyl)cyclopentyl) carbamate], the IC50 stood at 0.83 µM.

Still in this assay, the particulars now being: MV4-11, 96 h, read-out: Cell Growth Inhibition IC50 (μM) MV4; 11, MV4; 11 cells, 4 days, CellTiter-Glo.
As for `COC(=O)N[C@H]1CCC[C@@H]1C(C#N)(c1ccccc1)C1CCN(CC2CN(c3ccc(S(=O)(=O)C(F)(F)F)cc3)C2)CC1` (mixture of isomers) [compound 393, methyl rac-((1S,2R)-2-(cyano(phenyl)(1-((1-(4-((trifluoromethyl)sulfonyl)phenyl)azetidin-3-yl)methyl)piperidin-4-yl)methyl)cyclopentyl) carbamate], the IC50 was determined as 0.25 µM.

For a further assay, the target named is menin protein (Homo sapiens (Human), UniProt O00255). Kind of assay: biochemical. The assay is classed as binding. The note with it: FP competitive binding; menin protein 4 nM, FAM-MM2 probe 2 nM; read-out: Menin Binding Affinity IC50. Summed up: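 Competitive fluorescence polarization assay using FAM-labelled MLL1 peptide probe FAM-MM2 (2 nM final) preincubated with menin (4 nM final) in PBS with 0.02% bovine γ-globulin, 4% DMSO and 0.01% Triton X-100. Compounds were added and incubated 30 min at room temperature. IC50 came from nonlinear regression of competition curves, with Ki also derived.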
Sequence of menin protein (O00255 whole entry): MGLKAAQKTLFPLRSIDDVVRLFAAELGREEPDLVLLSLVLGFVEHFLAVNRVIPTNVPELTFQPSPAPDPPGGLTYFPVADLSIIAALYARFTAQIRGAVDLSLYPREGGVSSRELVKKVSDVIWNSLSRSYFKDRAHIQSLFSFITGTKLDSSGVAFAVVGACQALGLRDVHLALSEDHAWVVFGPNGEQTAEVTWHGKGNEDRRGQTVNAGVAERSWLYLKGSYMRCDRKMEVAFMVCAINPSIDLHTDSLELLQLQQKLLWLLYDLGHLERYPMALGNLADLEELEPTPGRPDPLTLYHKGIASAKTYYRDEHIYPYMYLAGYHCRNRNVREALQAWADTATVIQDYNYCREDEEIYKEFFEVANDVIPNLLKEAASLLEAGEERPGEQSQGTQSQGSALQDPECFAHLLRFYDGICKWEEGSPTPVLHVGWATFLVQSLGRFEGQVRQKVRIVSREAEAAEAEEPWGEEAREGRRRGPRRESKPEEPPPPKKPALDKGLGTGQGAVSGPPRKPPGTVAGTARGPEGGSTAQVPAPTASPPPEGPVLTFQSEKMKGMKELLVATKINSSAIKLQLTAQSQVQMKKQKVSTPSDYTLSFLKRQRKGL
In the case of `O=S(=O)(c1ccncc1)c1ccc(N2CC(CN3CCC(C4(C5CCCC5)CN(CC5CC5)Cc5ccccc54)CC3)C2)cc1` (stereo not shown) [compound 50, 4-cyclopentyl-2-(cyclopropylmethyl)-4-(1-((1-(4-(pyridin-4-ylsulfonyl)phenyl)azetidin-3-yl)methyl)piperidin-4-yl)-1,2,3,4-tetrahydroisoquinoline], the IC50 came to 7 nM.
On the same count and under the same terms, the same measure for `N#Cc1ccc(OCCCN2CCC(C3(C4CCCC4)COCc4ccccc43)CC2)cc1` (stereo not shown) [compound 35, 4-(3-(4-(4-cyclopentylisochroman-4-yl)piperidin-1-yl)propoxy)benzonitrile]: 3200 nM.
Regarding `CNC(=O)O[C@@H]1CCC[C@H]1C(C#N)(c1ccccc1)C1CCN(CC2CN(c3ccc(S(=O)(=O)c4ccn(C)n4)cc3)C2)CC1` (mixture of isomers) [compound 231], the IC50 stood at 68 nM.
Same read-out and setting: the same measure for `CC(C)C(=O)N1CCCCC1C1(C2CCN(CCCOc3ccc(C#N)cc3)CC2)CN(C)Cc2ccccc21` (stereo not shown) [compound 299, 4-(3-(4-(4-(1-isobutyrylpiperidin-2-yl)-2-methyl-1,2,3,4-tetrahydroisoquinolin-4-yl)piperidin-1-yl)propoxy)benzonitrile]: 16800 nM; for `CC(=O)O[C@@H]1CCC[C@H]1C1(C2CCN(CC3CN(c4ccc(S(=O)(=O)C5CC5)cc4)C3)CC2)CN(C)Cc2ccccc21` (mixture of isomers) [compound 204, rac-(1R,2S)-2-(4-(1-((1-(4-(cyclopropylsulfonyl)phenyl)azetidin-3-yl)methyl)piperidin-4-yl)-2-methyl-1,2,3,4-tetrahydroisoquinolin-4-yl)cyclopentyl acetate]: 122 nM.
Take `C[C@@H]1CC(C(C#N)(c2ccccc2)C2CCCC2)C[C@H](C)N1CCCOc1ccc(C#N)cc1` (stereo partly drawn) [compound 121, 4-(3-((2S,6R)-4-(cyano(cyclopentyl)(phenyl)methyl)-2,6-dimethylpiperidin-1-yl)propoxy)benzonitrile]: the IC50 is 13100 nM.
With `CS(=O)(=O)c1ccc(N2CC(CN3CCC(C(C#N)(c4ccccc4)[C@@H]4CCC[C@H]4O)CC3)C2)cc1` (mixture of isomers) [compound 179, rac-2-((1S,2R)-2-hydroxycyclopentyl)-2-(1-((1-(4-(methylsulfonyl)phenyl)azetidin-3-yl)methyl)piperidin-4-yl)-2-phenylacetonitrile], the IC50 came to 3800 nM.
In the case of `N#Cc1ccc(N2CC(C(=O)N3CCC(C4(C5CCCC5)NCCc5ccccc54)CC3)C2)cc1` (stereo not shown) [compound 128, 4-(3-(4-(1-cyclopentyl-1,2,3,4-tetrahydroisoquinolin-1-yl)piperidine-1-carbonyl)azetidin-1-yl)benzonitrile], the IC50 stood at 4100 nM.
Regarding `COCC(C1CC1)C(C#N)(c1ccccc1)C1CCN(CCCOc2ccc(C#N)cc2)CC1` (stereo not shown) [compound 329], the IC50 turned out to be 19000 nM.
`CCNC(=O)[C@H]1CCC[C@@H]1C(C#N)(c1ccccc1)C1CCN(CC2CN(c3ccc(S(=O)(=O)C4CC4)cc3)C2)CC1` (mixture of isomers) [compound 335, rac-(1S,2S)-2-(cyano(1-((1-(4-(cyclopropylsulfonyl)phenyl)azetidin-3-yl)methyl)piperidin-4-yl)(phenyl)methyl)-N-ethylcyclopentane-1-carboxamide]: the IC50 was 5600 nM.
On the same count and under the same terms, the same measure for `C=CCC1(C2CCN(CCCOc3ccc(C#N)cc3)CC2)NCCc2ccccc21` (stereo not shown) [compound 293, 4-(3-(4-(1-allyl-1,2,3,4-tetrahydroisoquinolin-1-yl)piperidin-1-yl)propoxy)benzonitrile]: 2800 nM; for `CN1Cc2cccc(Cl)c2C(C2CCCC2)(C2CCN(CCCOc3ccc(C#N)cc3)CC2)C1` (stereo not shown) [compound 34, 4-(3-(4-(5-chloro-4-cyclopentyl-2-methyl-1,2,3,4-tetrahydroisoquinolin-4-yl)piperidin-1-yl)propoxy)benzonitrile]: 1800 nM.
With `CC(C)C(=O)O[C@@H]1CCC[C@H]1C(C#N)(c1ccccc1)C1CCN(CC2CN(c3ccc(S(=O)(=O)c4ccncc4)cc3)C2)CC1` (mixture of isomers) [compound 194, rac-(1R,2S)-2-(cyano(phenyl)(1-((1-(4-(pyridin-4-ylsulfonyl)phenyl)azetidin-3-yl)methyl)piperidin-4-yl)methyl)cyclopentyl isobutyrate], the IC50 was 165000 nM.
Same read-out and setting: the same measure for `N#Cc1ccc(N2CC(CN3CCC(C4(C5CCCC5)NCCc5ccccc54)CC3)C2)cn1` (stereo not shown) [compound 109, 5-(3-((4-(1-cyclopentyl-1,2,3,4-tetrahydroisoquinolin-1-yl)piperidin-1-yl)methyl)azetidin-1-yl)picolinonitrile]: 825 nM; for `CO[C@@H]1CCC[C@@H]1C(C#N)(c1ccccc1)C1CCN(CCCOc2ccc(C#N)cc2)CC1` (mixture of isomers) [compound 177, rac-4-(3-(4-(cyano((1R,2R)-2-methoxycyclopentyl)(phenyl)methyl)piperidin-1-yl)propoxy)benzonitrile]: 3600 nM; for `CO[C@@H]1CCC[C@H]1C(C#N)(c1ccccc1)C1CCN(CCCOc2ccc(C#N)cc2)CC1` (mixture of isomers) [compound 175, rac-4-(3-(4-(cyano((1S,2R)-2-methoxycyclopentyl)(phenyl)methyl)piperidin-1-yl)propoxy)benzonitrile]: 8800 nM.
Still for that read-out and setting: the same measure for `CC(=O)N1CCCCC1C1(C2CCN(CCCOc3ccc(C#N)cc3)CC2)CN(C)Cc2ccccc21` (stereo not shown) [compound 297, 4-(3-(4-(4-(1-acetylpiperidin-2-yl)-2-methyl-1,2,3,4-tetrahydroisoquinolin-4-yl)piperidin-1-yl)propoxy)benzonitrile]: 2100 nM.
Take `N#Cc1ccc(N2CC(CN3CCC(C4(C5CCCC5)CN(C5COC5)Cc5ccccc54)CC3)C2)cc1` (stereo not shown) [compound 44, 4-(3-((4-(4-cyclopentyl-2-(oxetan-3-yl)-1,2,3,4-tetrahydroisoquinolin-4-yl)piperidin-1-yl)methyl)azetidin-1-yl)benzonitrile]: the IC50 was determined as 910 nM.
As to `CC(=O)O[C@@H]1CCC[C@H]1C1(C2CCN(CC3CN(c4ccc(S(=O)(=O)C5CC5)cc4)C3)CC2)CN(C)Cc2ccc(F)cc21` (mixture of isomers) [compound 317, rac-(1R,2S)-2-(4-(1-((1-(4-(cyclopropylsulfonyl)phenyl)azetidin-3-yl)methyl)piperidin-4-yl)-6-fluoro-2-methyl-1,2,3,4-tetrahydroisoquinolin-4-yl)cyclopentyl acetate], the IC50 stood at 161 nM.
For the compound `COC(=O)N[C@H]1CCC[C@@H]1C(C#N)(c1ccccc1)C1CCN(CC2CN(c3ccc(C(F)(F)F)cc3)C2)CC1` (mixture of isomers) [compound 401, methyl rac-((1S,2R)-2-(cyano(phenyl)(1-((1-(4-(trifluoromethyl)phenyl)azetidin-3-yl)methyl)piperidin-4-yl)methyl)cyclopentyl) carbamate], the IC50 was 89 nM.
On the same count and under the same terms, the same measure for `c1ccc(CN2CCC(C3(C4CCCC4)NCCc4ccccc43)CC2)cc1` (stereo not shown) [Cpd. No. 71, 1-(1-benzylpiperidin-4-yl)-1-cyclopentyl-1,2,3,4-tetrahydroisoquinoline]: 190000 nM.
The same measure, in the same setting: the same measure for `O=S(=O)(c1ccncc1)c1ccc(N2CC(CN3CCC(C4(C5CCCC5)CN(Cc5ccncc5)Cc5ccccc54)CC3)C2)cc1` (stereo not shown) [compound 53, 4-cyclopentyl-2-(pyridin-4-ylmethyl)-4-(1-((1-(4-(pyridin-4-ylsulfonyl)phenyl)azetidin-3-yl)methyl)piperidin-4-yl)-1,2,3,4-tetrahydroisoquinoline]: 1100 nM; for `CC(COc1ccc(C#N)cc1)CN1CCC(C(C#N)(c2ccccc2)C2CCCC2)CC1` (stereo not shown) [compound 127, 4-(3-(4-(cyano(cyclopentyl)(phenyl)methyl)piperidin-1-yl)-2-methylpropoxy)benzonitrile]: 294000 nM; for `CN1Cc2ccccc2C(c2ccccn2)(C2CCN(CC3CN(c4ccc(S(C)(=O)=O)cc4)C3)CC2)C1` (stereo not shown) [compound 170, 2-methyl-4-(1-((1-(4-(methylsulfonyl)phenyl)azetidin-3-yl)methyl)piperidin-4-yl)-4-(pyridin-2-yl)-1,2,3,4-tetrahydroisoquinoline]: 47600 nM.
